Where a name gives a salt, the structure may show the parent alone. Where only a bound is given, the exact number is not on record here.

Experiment [1] has as its system CHO-K1. Kind of experiment: benchmark concentration for 60% increase in hypodiploid frequency (BMC60); higher = less potent aneugen. How it is done:
(§1)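 Benchmark concentration modelling (PROAST, Hill/exponential model families) of the 19-concentration flow-cytometric micronucleus assay in CHO-K1 cells, with and without rat liver S9. Only non-cytotoxic and adequate (relative survival >=40%) concentrations were used. BMR was a 30% increase in %MN (BMC30) or a 60% increase in %hypodiploid (BMC60) over control.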

Experiment [2] relates to CHO-K1. The experiment is described as follows: benchmark concentration for 30% increase in micronucleus frequency (BMC30); higher = less potent clastogen. How it is done:
as §1

[3] abbreviates: S9 metabolic activation: with S9.
[4] abbreviates: S9 metabolic activation: without S9.

As to `CC(C)(c1cc(Br)c(O)c(Br)c1)c1cc(Br)c(O)c(Br)c1` [3,3',5,5'-Tetrabromobisphenol A], the figures for the benchmark concentration with CHO-K1 [1] (setting [3]), with CHO-K1 [1] (setting [4]) and in the experiment with CHO-K1 [2] (setting [4]) were 28 µM, 37 µM and 44 µM, respectively. Turning to `Cc1cc(-c2ccc(N)c(C)c2)ccc1N` [3,3'-Dimethylbenzidine], the benchmark concentration with CHO-K1 [1] (setting [4]) came out at 20 µM; in the experiment on CHO-K1 [2] (setting [4]), 99 µM. Take `Nc1ccc(Cl)cc1N` [4-Chloro-1,2-diaminobenzene]: in the experiment with CHO-K1 [2] (setting [4]), the benchmark concentration came out at 41 µM. Regarding `Oc1cccc2cccnc12` [8-Hydroxyquinoline], the benchmark concentration was found to be 16 µM with CHO-K1 [2] (setting [3]) and 26 µM in the experiment on CHO-K1 [2] (setting [4]).

The compound `CC(N)=O` [Acetamide] had a benchmark concentration with CHO-K1 [2] (setting [4]) of 5.8 µM. As to `CCOCN(C(=O)CCl)c1c(C)cccc1CC` [Acetochlor], the benchmark concentration was 79 µM with CHO-K1 [2] (setting [3]) and 39 µM in the experiment with CHO-K1 [2] (setting [4]). For the compound `C=CC(N)=O` [Acrylamide], the benchmark concentration in the experiment with CHO-K1 [2] (setting [3]) worked out at 47 µM. Same read-out and setting: for `COCCOCCOC` [Bis(2-methoxyethyl) ether] the value was 72 µM. In turn, `CS(=O)(=O)OCCCCOS(C)(=O)=O` [Busulfan] returned a benchmark concentration in the experiment with CHO-K1 [2] (setting [4]) of 19 µM. Still for that read-out and setting: for `CCCCCCCCCCCCCCCS(=O)(=O)Oc1ccccc1` [C10-21 sulfonic acids phenyl esters] the value was 130 µM; for `CCOC(=O)C(O)(c1ccc(Cl)cc1)c1ccc(Cl)cc1` [Chlorobenzilate], 47 µM. For `CN(C)CCCN1c2ccccc2Sc2ccc(Cl)cc21` [Chlorpromazine hydrochloride], the benchmark concentration in the experiment with CHO-K1 [2] (setting [4]) turned out to be 23 µM.

As for `C[C@@H]1C[C@@H]([C@H](O)CC2CC(=O)NC(=O)C2)C(=O)[C@@H](C)C1` [Cycloheximide], in the experiment on CHO-K1 [2] (setting [3]), the benchmark concentration was less than 4.5 µM. The compound `O=P1(N(CCCl)CCCl)NCCCO1` (centres undefined) [Cyclophosphamide monohydrate] came in with a benchmark concentration with CHO-K1 [2] (setting [4]) of 91 µM. The same measure, in the same setting: for `CCCCC(CC)COC(=O)CCCCC(=O)OCC(CC)CCCC` (centres undefined) [Di(2-ethylhexyl) adipate] the value was 76 µM. In the experiment with CHO-K1 [2] (setting [3]), `c1ccc2c(c1)oc1ccccc12` [Dibenzofuran] yielded a benchmark concentration of 33 µM. In the case of `CC(C)(OOC(C)(C)c1ccccc1)c1ccccc1` [Dicumyl peroxide], the benchmark concentration with CHO-K1 [2] (setting [3]) worked out at 88 µM; with CHO-K1 [2] (setting [4]), 5.5 µM.

In the experiment with CHO-K1 [2] (setting [4]), `OCCOCCO` [Diethylene glycol] came in with a benchmark concentration of 79 µM.

With `CCC(C)c1cc([N+](=O)[O-])cc([N+](=O)[O-])c1O` (centres undefined) [Dinoseb], the benchmark concentration in the experiment with CHO-K1 [2] (setting [4]) turned out to be 49 µM. As for `CCOc1ccc2c(c1)C(C)=CC(C)(C)N2` [Ethoxyquin], the benchmark concentration with CHO-K1 [2] (setting [3]) came out at 86 µM; in the experiment with CHO-K1 [2] (setting [4]) it was 55 µM. As for `CCOC(=O)c1ccc(O)cc1` [Ethylparaben], in the experiment on CHO-K1 [2] (setting [4]), the benchmark concentration turned out to be 70 µM. Same read-out and setting: for `O=Cc1ccco1` [Furfural] the value was 130 µM; for `O=c1c(-c2ccc(O)cc2)coc2cc(O)cc(O)c12` [Genistein], 10 µM; for `O=CCCCC=O` [Glutaraldehyde], 28 µM. On to `OCC1CO1` (centres undefined) [Glycidol], for which the benchmark concentration with CHO-K1 [2] (setting [4]) amounted to 99 µM.

Regarding `ClC1=C(Cl)C(Cl)(Cl)C(Cl)=C1Cl` [Hexachlorocyclopentadiene], the benchmark concentration in the experiment with CHO-K1 [2] (setting [3]) is 23 µM; in the experiment on CHO-K1 [2] (setting [4]) it was less than 4.5 µM. The corresponding values for `O=C1C2(Cl)C3(Cl)C4(Cl)C(Cl)(Cl)C5(Cl)C3(Cl)C1(Cl)C5(Cl)C24Cl` (centres undefined) [Kepone] are 53 µM and 30 µM. `CC(=O)N1CCN(c2ccc(OCC3COC(Cn4ccnc4)(c4ccc(Cl)cc4Cl)O3)cc2)CC1` (centres undefined) [Ketoconazole]: the benchmark concentration in the experiment with CHO-K1 [2] (setting [3]) worked out at 54 µM. The same measure, in the same setting: for `CCCN(CCC)N=O` [N-Nitrosodipropylamine] the value was 20 µM. In the case of `O=[N+]([O-])c1ccc(Oc2ccc(Cl)cc2Cl)cc1` [Nitrofen], the benchmark concentration with CHO-K1 [2] (setting [4]) stood at 77 µM. Still for that read-out and setting: for `CCCCCCCCn1sccc1=O` [Octhilinone] the value was less than 4.5 µM; for `O=S(=O)(O)C(F)(F)C(F)(F)C(F)(F)C(F)(F)C(F)(F)C(F)(F)C(F)(F)C(F)(F)F` [PFOS], 18 µM.

The compound `O=C1OC(c2ccc(O)cc2)(c2ccc(O)cc2)c2ccccc21` [Phenolphthalein] had a benchmark concentration in the experiment on CHO-K1 [2] (setting [4]) of 22 µM. For `CCCOC(=O)c1cc(O)c(O)c(O)c1` [Propyl gallate], the benchmark concentration with CHO-K1 [2] (setting [3]) was determined as 24 µM; in the experiment on CHO-K1 [2] (setting [4]), 17 µM. Take `CCCOC(=O)c1ccc(O)cc1` [Propylparaben]: the benchmark concentration with CHO-K1 [2] (setting [3]) worked out at 37 µM. `O=C(c1ccc(OCCN2CCCCC2)cc1)c1c(-c2ccc(O)cc2)sc2cc(O)ccc12` [Raloxifene hydrochloride]: the benchmark concentration in the experiment on CHO-K1 [2] (setting [3]) was 70 µM; in the experiment on CHO-K1 [2] (setting [4]), 28 µM. `O=C(O)c1cc(/N=N/c2ccc(S(=O)(=O)Nc3ccccn3)cc2)ccc1O` [Sulfasalazine] gave a benchmark concentration with CHO-K1 [2] (setting [4]) of 65 µM.

In turn, `Oc1cc(Cl)ccc1Oc1ccc(Cl)cc1Cl` [Triclosan] came in with a benchmark concentration in the experiment on CHO-K1 [2] (setting [3]) of 40 µM.

Turning to `O=P(OCCCl)(OCCCl)OCCCl` [Tris(2-chloroethyl) phosphate], the benchmark concentration in the experiment on CHO-K1 [1] (setting [4]) turned out to be 150 µM. Regarding `Cc1c(C)c2c(c(C)c1O)CCC(C)(COc1ccc(CC3SC(=O)NC3=O)cc1)O2` (centres undefined) [Troglitazone], the benchmark concentration in the experiment on CHO-K1 [1] (setting [4]) came to 14 µM.

The compound `CCOC(N)=O` [Urethane] yielded a benchmark concentration in the experiment with CHO-K1 [2] (setting [3]) of 32 µM. In the case of `Cl[C@H]1[C@H](Cl)[C@@H](Cl)[C@H](Cl)[C@@H](Cl)[C@@H]1Cl` [beta-Hexachlorocyclohexane], the benchmark concentration in the experiment on CHO-K1 [1] (setting [4]) was determined as 32 µM. The same measure, in the same setting: for `Cc1ccccc1O` [o-Cresol] the value was 130 µM.

For the origin of these results see the supplement of paper PMC9151546.
